Results as given in US20240353769A1, “ELECTROPHOTOGRAPHIC PHOTORECEPTOR, COATING LIQUID FOR FORMING ELECTROPHOTOGRAPHIC PHOTORECEPTOR PROTECTIVE LAYER, COMPOUND, ELECTROPHOTOGRAPHIC PHOTORECEPTOR CARTRIDGE, AND IMAGE FORMATION DEVICE” (MITSUBISHI CHEMICAL CORPORATION, priority 2021, published 2024).

Test: Evaluation of solubility in organic solvent (visual)
Format: physicochemical
Set-up: key: A (good): The compound dissolved completely at room temperature.; B (poor): Undissolved compound was observed at room temperature
Details: eight parts by mass in 100 parts by mass mixed solvent (19 mass % THF, 38 mass % TL, 43 mass % 2-PrOH), 25° C., stirred 10 minutes
Experimental: To 100 parts by mass of a mixed solvent of tetrahydrofuran (appropriately abbreviated to as THF below), toluene (appropriately abbreviated to as TL below) and 2-propanol (appropriately abbreviated to as 2-PrOH below) (19 mass % THF, 38 mass % TL and 43 mass % 2-PrOH, 25° C.), eight parts by mass of the compound 1 or 2 or the comparative compound 1 was added, and without heating or cooling, the mixtures were stirred with a rotor for 10 minutes. Then, the dissolution states were observed visually, and the solubility was evaluated by the following criteria.

| Solubility | SMILES |
| --- | --- |
| B | CCC(C)(C)C1=C/C(=C2/C=C(C(C)(C)CC)C(=O)c3ccccc32)c2ccccc2C1=O [Comparative Compound 1, reference compound] |
| A | C=C(C)C(=O)OCC(COC(=O)C(=C)C)OC(=O)CCC(=O)Oc1cccc(C(C)C2=C/C(=C3/C=C(C(C)c4cccc(OC(=O)CCC(=O)OC(COC(=O)C(=C)C)COC(=O)C(=C)C)c4)C(=O)c4ccccc43)c3ccccc3C2=O)c1 (stereo not drawn) [Compound 2] |
| A | C=CC(=O)OCCOC(=O)CCC(=O)Oc1cccc(C(C)C2=C/C(=C3/C=C(C(C)c4cccc(OC(=O)CCC(=O)OCCOC(=O)C=C)c4)C(=O)c4ccccc43)c3ccccc3C2=O)c1 (stereo not drawn) [Compound 1] |
